Data: patent US7994159B2, “c-Kit kinase inhibitor” (Eisai R&D Management Co., Ltd., priority 2003, dated 2011)

How the values were obtained:
c-Kit kinase [1] = molecular target: T1, c-Kit kinase (Homo sapiens, UniProt P10721); assay: c-Kit kinase phosphorylation in H-526 tumor transplanted to nude mice (immunoblot); type: in vivo, Balb/c nu/nu mice; design: Compound 1 reduced phosphorylated c-Kit in tumor tissue when administered at 30 or 100 mg/kg; from tissue; host or cells: H-526 tumour grown subcutaneously in female Balb/c nu/nu mice; conditions: H-526 tumor in nude mice, FIG. 3
Method: 0.1 ml of a H-526 cell suspension prepared at a concentration of 5.0×10^7 cells/ml, was transplanted to the subcutaneous parts of the right latus of 6-week female Balb/c nu/nu mice (purchased from Charles River Laboratories, Inc.). The animals were then divided into a vehicle control group (solvent-administered group) and a test substance administered group at the point the tumor volume reached 300-1000 mm^3: the test substance was administered to the latter group. […] After centrifugation, the supernatant was protein quantified, and a 3×SDS sample loading buffer was added to prepare a cell lysate sample. Subsequently, the cell lysate was heat-treated at 94° C. for 10 minutes and cryopreserved at -20° C. […] After electrophoresis, the sample was transferred to a PVDF membrane (Amersham Pharmacia Biotech Inc.) for 3 hours. In order to assay phosphorylated c-Kit, c-Kit and β-actin, immunoblot was performed using a phospho-c-kit ([…]) antibody (Cell Signaling Technologies, Inc.), an anti c-Kit antibody (Cell Signaling Technologies, Inc.) and an anti β-actin antibody (Sigma) as a primary antibody and an anti-rabbit IgG, HRP-linked antibody (Cell Signaling Technologies, Inc.) as a secondary antibody. After the membrane was washed, it was developed with a Super Signal (Pierce Biotechnology, Inc.).

[2] = system: small cell lung cancer cell line H-526 expressing c-Kit kinase; assay: Effect on proliferation of H-526 cells stimulated by SCF (Cell Counting Kit-8); type: cell-based; conditions: Homo sapiens, NCI-H526, 7th day after addition of test substance, read-out: IC50, concentration required for 50% inhibition of the cell proliferation stimulated by SCF
Method: H-526 cells were cultured in a 5% CO2 incubator (37° C.) using an RPMI1640 medium (Nissui Pharmaceutical Co., Ltd.) containing 10% FCS (purchased from Cell Culture Technologies). After culturing, H-526 cells were washed with PBS three times and were suspended in an RPMI1640 medium containing 0.1% BSA (Sigma Corporation) (hereinafter abbreviated as “BSA-RPMI1640”) at 1.0×10^5 cells/ml. […] On the 7th day after addition of the test substance, 20 μl of Cell Counting Kit-8 (Dojin Laboratories) was added to the well and was cultured in a 5% CO2 incubator (37° C.) for about 2 hours. After color development, the absorbance of each well was determined using a MTP-32 plate reader (Colona Electric Co., Ltd.) at a measuring wavelength of 450 nm and at a reference wavelength of 660 nm. The absorbance of each well was subtracted by the absorbance of the well without addition of SCF, and then the ratio of the absorbance of the well with addition of the test substance to the ratio of the absorbance of the well without addition of the test substance was determined. This ratio was used to calculate the concentration of the test substance required for 50% inhibition of the cell proliferation (IC50).

c-Kit kinase [3] = molecular target: T1, c-Kit kinase; assay: c-Kit kinase phosphorylation by SCF stimulation in H-526 cells (immunoblot, phospho-c-kit Tyr719); type: cell-based; design: in the small cell lung cancer cell line H-526 expressing c-Kit kinase; host or cells: H-526 small cell lung cancer cells; conditions: 1 hour test substance then 5 minutes SCF, FIG. 1
Method: H-526 cells were cultured in a 5% CO2 incubator (37° C.) using an RPMI1640 medium containing 10% FCS. After culturing, H-526 cells were washed with PBS three times and were suspended in a BSA-RPMI1640 medium at 5.0×10^5 cells/ml. Each 1 ml of this cell suspension was inoculated to the well of a 24-well plate and the suspension was cultured in a 5% CO2 incubator (37° C.) for 6 hours. After 6-hours culturing, 1 ml of BSA-RPMI1640 containing a diluted test substance was added to each well and culturing was carried out in a 5% CO2 incubator (37° C.) for 1 hour. […] After 5-minutes culturing, the cells were washed with PBS and 100 μl of SDS sample loading buffer was added to the cells to prepare a cell lysate sample. After the sample was heat-treated at 94° C. for 10 minutes, it was cryopreserved at -20° C. […] After electrophoresis, the sample was transferred to a PVDF membrane (Amersham Pharmacia Biotech Inc.) for 3 hours. The transferred membrane was subjected to immunoblot using a phospho-c-kit ([…]) antibody (Cell Signaling Technology Inc.) as a primary antibody and an anti-rabbit IgG, HRP-linked antibody (Cell Signaling Technology Inc.) as a secondary antibody. After the membrane was washed, it was developed with a Super Signal (Pierce Biotechnology, Inc.).

H-526 tumor = assay: Growth of H-526 tumor transplanted to nude mice; type: in vivo, Balb/c nu/nu mice; conditions: oral, twice daily for 14 days, FIG. 2
Method: H-526 cells were cultured in a 5% CO2 incubator (37° C.) using an RPMI1640 medium containing 10% FCS. After the culture medium was collected, H-526 cells were washed with PBS twice and were suspended in PBS at 5.0×10^7 cells/ml. This cell suspension (0.1 ml) was transplanted to the subcutaneous parts of the right flank of 6-week female Balb/c nu/nu mice (purchased from Charles River Laboratories, Inc.). After transplantation, administration of a test substance was started at the point the tumor volume reached approximately 150 mm^3, and thus, oral administration was conducted twice daily for a period of 14 days. The test substance was suspended in a 0.5% methylcellulose solution (Wako Pure Chemical Industries Co., Ltd.) so as to give a dose of 0.1 ml/10 g body weight.
The tumor volume was measured with a caliper twice weekly during the administration period. The long and short diameters of the tumor were measured with a caliper and the tumor volume was calculated according to the equation: ½×long diameter×short diameter×short diameter. Here, the experiment was conducted in a vehicle control group of 10 animals (solvent-administered group) as well as in a test substance administered group of 5 animals.

T1 sequence (P10721 26-976): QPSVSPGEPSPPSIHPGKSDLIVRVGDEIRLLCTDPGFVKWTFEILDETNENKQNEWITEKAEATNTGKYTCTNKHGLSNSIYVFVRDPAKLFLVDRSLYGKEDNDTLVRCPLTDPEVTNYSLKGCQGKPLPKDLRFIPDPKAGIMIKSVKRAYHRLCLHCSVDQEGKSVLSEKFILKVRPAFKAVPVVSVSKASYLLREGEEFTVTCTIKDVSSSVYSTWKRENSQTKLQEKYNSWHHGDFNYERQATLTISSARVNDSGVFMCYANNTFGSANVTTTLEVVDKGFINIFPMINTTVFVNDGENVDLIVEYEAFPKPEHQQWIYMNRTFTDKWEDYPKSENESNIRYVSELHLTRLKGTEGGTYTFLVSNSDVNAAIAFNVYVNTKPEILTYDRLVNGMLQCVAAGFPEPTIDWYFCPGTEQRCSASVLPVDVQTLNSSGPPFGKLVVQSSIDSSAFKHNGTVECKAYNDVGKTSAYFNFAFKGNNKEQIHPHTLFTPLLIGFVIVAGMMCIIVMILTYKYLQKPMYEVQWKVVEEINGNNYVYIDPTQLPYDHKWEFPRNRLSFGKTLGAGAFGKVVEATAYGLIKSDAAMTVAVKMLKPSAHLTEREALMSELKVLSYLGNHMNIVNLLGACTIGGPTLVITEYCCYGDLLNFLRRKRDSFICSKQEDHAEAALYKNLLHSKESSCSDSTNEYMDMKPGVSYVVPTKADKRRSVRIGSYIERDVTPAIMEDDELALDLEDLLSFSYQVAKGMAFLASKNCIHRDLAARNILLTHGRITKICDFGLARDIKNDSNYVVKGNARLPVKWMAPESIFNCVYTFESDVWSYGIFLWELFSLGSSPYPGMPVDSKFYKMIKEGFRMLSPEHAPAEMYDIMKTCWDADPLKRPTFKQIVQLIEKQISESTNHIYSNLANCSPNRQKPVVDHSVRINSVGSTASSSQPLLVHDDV

COc1cc2nccc(Oc3ccc(NC(=O)NC4CC4)c(Cl)c3)c2cc1C(N)=O [Compound 1, 4-(3-Chloro-4-(cyclopropylaminocarbonyl)aminophenoxy)-7-methoxy-6-quinolinecarboxamide]
c-Kit and β-actin in tumor tissue (c-Kit kinase [1]; 30 or 100 mg/kg): remained unchanged | phosphorylated c-Kit in tumor tissue (c-Kit kinase [1]; 30 or 100 mg/kg): completely inhibited phosphorylation | IC50 [2]: 9.36 nM | suppression of c-Kit kinase phosphorylation in the presence of SCF (c-Kit kinase [3]): suppressed the c-Kit kinase phosphorylation that would take place in the presence of SCF in a concentration-dependent manner | growth of nude mouse transplanted H-526 tumor (tumor volume) (H-526 tumor): suppressed the growth of the nude mouse transplanted H-526 tumor in a dose-dependent manner

CCNC(=O)Nc1ccc(Oc2ccnc3cc(OC)c(C(N)=O)cc23)cc1Cl [Compound 2, 4-(3-Chloro-4-(ethylaminocarbonyl)aminophenoxy)-7-methoxy-6-quinolinecarboxamide]
IC50 [2]: 12.8 nM

CONC(=O)c1cc2c(Oc3ccc(NC(=O)NC4CC4)c(Cl)c3)ccnc2cc1OC [Compound 3, N6-Methoxy-4-(3-chloro-4-(((cyclopropylamino)carbonyl)amino)phenoxy)-7-methoxy-6-quinolinecarboxamide]
IC50 [2]: 214 nM

CCNC(=O)Nc1ccc(Oc2ccnc3cc(OC)c(C(=O)NOC)cc23)cc1Cl [Compound 4, N6-Methoxy-4-(3-chloro-4-(((ethylamino)carbonyl)amino)phenoxy)-7-methoxy-6-quinolinecarboxamide]
IC50 [2]: 56.3 nM

Cc1ccc(NC(=O)c2ccc(CN3CCN(C)CC3)cc2)cc1Nc1nccc(-c2cccnc2)n1 [STI571, reference compound]
phosphorylated c-Kit in tumor tissue (c-Kit kinase [1]; 160 mg/kg): partially inhibited phosphorylation | anti-tumor effect on nude mouse transplanted H-526 tumor (H-526 tumor; 160 mg/kg): little anti-tumor effect
